Molecules are shown by their SMILES.

Experimental findings from the METLIN SMRT retention time set (Domingo-Almenara et al. 2019) are described below.

This data set in a line: gradient 5% acetonitrile 3 min, to 50% in 2 min, to 85% in 15 min, held 3 min, 100 µL/min. To be noted: column: Zorbax Extend-C18 2.1 x 50 mm; eluents: water / acetonitrile, 0.1% formic acid. In outline: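 The system's dead and dwell volumes were 40 μL and 900 μL, with a Zorbax Extend-C18 column (2.1 × 50 mm, 1.8 μm) run at 100 μL/min in water and acetonitrile containing 0.1% formic acid each. Pure standards were analyzed in mixtures of ~100 molecules by HPLC–quadrupole time-of-flight mass spectrometry in positive and negative ionization mode. Retention time was assigned from computationally picked, manually inspected adduct peaks.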
Molecule `O=C(Cn1nc(N2CCCC2)c2ccccc2c1=O)Nc1ccc(F)cc1Cl` came in with an RP-LC retention time of 1010 s.

On to `Cc1c(C(=O)N2CCCCC2)cnn1-c1ccc(-c2nc(C3CC3)no2)cn1`, for which the RP-LC retention time came out at 1010 s.

For `CCCN(CC1CCOC1)C(=O)Nc1ccc(C)cc1C` (centres undefined), the RP-LC retention time was 811 s.

In turn, `Clc1ccc(-c2ccc(CNCc3ccco3)o2)c(Cl)c1` had an RP-LC retention time of 743 s.

As to `O=C(c1ccc(OCC2CCCN2C(=O)CC2CCCCC2)cc1)N1CCOCC1` (centres undefined), the RP-LC retention time stood at 829 s.

`O=C(Nc1nnc(C2CCCO2)o1)c1ccc([N+](=O)[O-])s1` (centres undefined): the RP-LC retention time was 685 s.

`Cc1c(C(=O)N2CCSCC2)cnn1-c1cc(-c2nc(C(C)(C)C)no2)ccn1` showed an RP-LC retention time of 1070 s.

The molecule `Cc1cc(C(=O)O)c2c(C)nn(-c3cccc(F)c3)c2n1` yielded an RP-LC retention time of 954 s.

Molecule `CC(C)C(=O)n1nc(-c2ccc(Cl)cc2)nc1N` yielded an RP-LC retention time of 1050 s.

Turning to `CCCNc1cc(N2CCCC(CCC(=O)NC(C)C)C2)ncn1` (centres undefined), the RP-LC retention time is 616 s.

`COCCCNC(=O)Cn1c(=O)c(S(=O)(=O)c2ccccc2)cc2ccccc21` returned an RP-LC retention time of 705 s.

Regarding `Cc1nnsc1C(=O)N1CCC(CNC(=O)C(C)(C)Oc2ccc(Cl)cc2)CC1`, the RP-LC retention time turned out to be 806 s.

For `CCc1ccc(NS(=O)(=O)c2cc(-c3[nH]ncc3C(=O)N3CCCCC3)oc2C)cc1`, the RP-LC retention time turned out to be 822 s.

Regarding `O=C(NC1CC1)c1ccc(OCC2CCN(C(=O)c3c(F)cccc3Cl)CC2)cc1`, the RP-LC retention time was found to be 837 s.

In turn, `Cc1nnc(-c2nnc(N3CCN(c4ccccn4)CC3)c3ccccc23)o1` displayed an RP-LC retention time of 611 s.

Molecule `O=C(c1cccc2[nH]cc(CN3CCOCC3)c12)N1CCN(c2ccc(Cl)cc2)CC1` had an RP-LC retention time of 753 s.

`O=C(c1ccccc1Br)N1CCN=C1N1CCN(c2ccccc2F)CC1` yielded an RP-LC retention time of 757 s.

Regarding `CCc1ccc(NC(=O)C2CCN(S(=O)(=O)c3cc(C(=O)N4CCCC4)cs3)CC2)cc1`, the RP-LC retention time was determined as 922 s.

Regarding `CS(=O)(=O)N1CCC(C(=O)NCCc2ccccc2)Oc2ccc(Cl)cc21` (centres undefined), the RP-LC retention time is 919 s.

`CCN1C(=O)COc2ccc(-c3noc(C4(c5ccc(OC)cc5)CC4)n3)cc21` yielded an RP-LC retention time of 1140 s.

With `CCC(C)NC(=O)c1c(O)c2sccc2n(Cc2ccccc2)c1=O` (centres undefined), the RP-LC retention time is 1310 s.

Consider `CCN(CC)C(=O)c1c2c(cn(-c3ccc(C)cc3)c1=O)C(=O)CC(C)(C)C2`, for which the RP-LC retention time turned out to be 799 s.

The molecule `O=C(Nc1ccc(F)cc1)N1CCCC1c1nc(-c2cccc(F)c2)no1` (centres undefined) showed an RP-LC retention time of 965 s.

`O=C(NCc1ccco1)C1CCCN(c2nnc3ccc(Cl)cn23)C1` (centres undefined) had an RP-LC retention time of 687 s.

In turn, `CCCN1C(=O)COc2ccc(-c3csc(NC(=O)CCc4ccccc4)n3)cc21` showed an RP-LC retention time of 1070 s.

In the case of `CN(CCc1noc(COc2ccccc2F)n1)C(=O)NCCc1ccccc1`, the RP-LC retention time was 876 s.

Molecule `Cc1ccc2[nH]cc(CCNC(=O)C3CCCN(C(=O)c4[nH]c(C)cc4C)C3)c2c1` (centres undefined) returned an RP-LC retention time of 832 s.

`Cc1cc(N2CCC(C)CC2)n2ncnc2n1` yielded an RP-LC retention time of 790 s.

In turn, `CN(C)c1ccc(CCNC(=O)C(=O)NC2CC2)cc1` gave an RP-LC retention time of 523 s.

`CC(C)C(=O)N1CCN(c2ccc(=O)n(-c3ccc(Cl)cc3)n2)CC1` showed an RP-LC retention time of 767 s.

The molecule `COC(=O)c1nnn(-c2ccc(C)c(Cl)c2)c1C(=O)OC` returned an RP-LC retention time of 965 s.

Consider `Cn1cccc1C(=O)N1CCC(OCc2nc(C3CC3)no2)CC1`, for which the RP-LC retention time came out at 799 s.

Turning to `Cc1ccn2c(NC(=O)/C=C/c3ccccc3)c(-c3ccccc3)nc2c1`, the RP-LC retention time worked out at 703 s.

`Cc1cccc(CN2C[C@@H]3C(=O)N(CCCN4CCCC4=O)C(=O)[C@@H]3C2)c1` yielded an RP-LC retention time of 589 s.
